The record followed here is US20210346476A1, “Modified FVIII Apitope Peptides” (APITOPE INTERNATIONAL NV, priority 2012, published 2021).

No end group written: not given here.

This data set in a line: Direct dissolution of tagged peptides in aqueous solvent (PBS) at 4 mg/mL, NanoDrop. Type of data set: physicochemical. The following applies: 4 mg/mL in PBS vs DMSO control; FIG. 2. On the procedure:
For each test peptide and the parent peptides (PRCLT and DNIMV) two tubes were prepared at 4 mg/mL in either DMSO (control) or PBS.
Each tube was spun at full speed in a mini-centrifuge for 5 minutes. A 10 μL sample was removed from the top of each solution and the molecular weight and coefficient of absorption was recorded for each peptide.
The absorbance of the supernatant was measured using NanoDrop and the concentration calculated. In this Figure, greater disparity between the actual and expected concentration corresponds to lower relative solubility.
For KEGDNIMVTFRNQASRPYGKE [SEQ ID No. 26], the “solubility in PBS compared to the parent peptides” value is on record as “improved solubility in PBS”.
For the sequence KKGPRCLTRYYSSFVNMEGKE [SEQ ID No. 2], the “solubility in PBS compared to the parent peptides” value is reported as “improved solubility in PBS”.
KEGPRCLTRYYSSFVNMEGKE [SEQ ID No. 10]: the “solubility in PBS compared to the parent peptides” value is given as “improved solubility in PBS”.
With KEGPRCLTRYYSSFVNMEGKK [SEQ ID No. 9], the “solubility in PBS compared to the parent peptides” value was “improved solubility in PBS”.
Take KKGDNIMVTFRNQASRPYGKK [SEQ ID No. 17]: the “solubility in PBS compared to the parent peptides” value is “improved solubility in PBS”.
Next, KKGPRCLTRYYSSFVNMEGKK [SEQ ID No. 1]: “improved solubility in PBS”.
Under KEGDNIMVTFRNQASRPYGKK [SEQ ID No. 25] stands “improved solubility in PBS”.
Regarding KKGDNIMVTFRNQASRPYGKE [SEQ ID No. 18], the “solubility in PBS compared to the parent peptides” value is given as “improved solubility in PBS”.
